Source: US20190169181A1, “FUMAGILLOL COMPOUNDS AND METHODS OF MAKING AND USING SAME” (Zafgen, Inc., priority 2016, published 2019)
Counter-ions that a name gives are not always drawn.

Experiments:
[1] = biological target: T1, recombinant human MetAP2 (Homo sapiens, UniProt P50579); assay: Recombinant human MetAP2 enzyme inhibition assay (MAS peptide / amino acid oxidase / Amplex Ultrared readout); type: biochemical; settings: Flag tagged human recombinant MetAP2, 25 minutes at 25° C.
T1 construct: Flag; made in house
T1 sequence (P50579 whole entry): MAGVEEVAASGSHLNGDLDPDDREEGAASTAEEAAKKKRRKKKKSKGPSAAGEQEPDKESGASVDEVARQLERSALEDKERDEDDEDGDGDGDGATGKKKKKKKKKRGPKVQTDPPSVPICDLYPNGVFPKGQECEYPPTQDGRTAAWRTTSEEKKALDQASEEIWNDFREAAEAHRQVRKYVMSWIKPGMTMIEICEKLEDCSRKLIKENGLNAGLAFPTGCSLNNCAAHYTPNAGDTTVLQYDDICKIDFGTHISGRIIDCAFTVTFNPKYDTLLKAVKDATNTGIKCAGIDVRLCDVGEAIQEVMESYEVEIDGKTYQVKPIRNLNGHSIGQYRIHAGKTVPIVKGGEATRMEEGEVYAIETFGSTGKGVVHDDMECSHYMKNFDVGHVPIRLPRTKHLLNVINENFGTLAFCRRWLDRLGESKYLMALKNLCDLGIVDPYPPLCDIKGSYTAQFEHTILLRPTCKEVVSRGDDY
Protocol: Compounds are tested for their capacity to inhibit recombinant human MetAP2 activity using the following assay.
Flag tagged Human recombinant MetAP2 expressed and isolated for use as the enzyme source. 10 mM stock solutions of compounds were prepared in 100% DMSO and further diluted in 100% DMSO required concentration to 1 mM stocks. The stock compound solutions and DMSO vehicle controls were diluted to target final compound concentrations using assay buffer to a final concentration of 50 mM HEPES containing 100 mM NaCl, pH adjusted to 7.5. The MAS peptide was formulated to a 7.5 mM stock in distilled water and prior to use further diluted 1:4. […] 40 μl of enzyme was mixed with 100 μl of MnCl2 then further diluted in assay buffer to a final concentration of 16 μg/ml. To test for compound effect on MetAP2 enzyme activity, 5 μl of test compound, 10 μl of MAS substrate/amino acid oxidase mixture, 10 μl of MetAP2 was added to test wells in a 384 well black plate with blank wells containing no enzyme, replaced with 10 μl of assay buffer. All compounds were tested in duplicate on two occasions on the same day.
The plate was sealed with a TopSeal A cover and mixed briefly on an orbital mixer at 900 rpm. The plate was incubated for a further 25 minutes at 25° C. A 5× stock of Amplex buffer was prepared (0.25 M sodium phosphate, pH 7.4) and stored at 4° C. […] Horse radish peroxidase was diluted in […] of Amplex buffer, 100 μl of this was combined with 50 μl of Amplex Ultrared in […] of 1× Amplex buffer to generate sufficient detection reagent for a 384 well plate. 25 μl detection reagent was added to each well of the test plate, which was re-sealed and mixed briefly on an orbital shaker. The plate was transferred to an Envision Multi-label reader and RFU measured corresponding to excitation 531 nm and emission 595 nm. At the end of the MetAP2 incubation 25 μl Amplex/HRP mixture per well was added and the plate read plate on a plate reader.

[2] = tested on: Diet Induced Obese (DIO) C57BL/6 mice; assay: 10 day DIO mouse model, weight loss vs. vehicle; type: in vivo; settings: 240 h; for inhibition in vivo at 0.3 mg/kg: 0.3 mpk sc once a day for 10 days; for inhibition in vivo at 1 mg/kg: 1.0 mpk sc once a day for 10 days
Text: The objective of this study design was to investigate the efficacy of disclosed compounds in a 10 day DIO mouse model. Effects on body weight, food intake, hematology and blood chemistry were the primary readouts of this study design. Male, Diet Induced Obese (DIO) C57BL/6 mice, 19-21 weeks of age (13-15 weeks on high fat diet) were ordered from a certified vendor and upon receipt were housed on irradiated corncob bedding in micro-isolator cages on a 12-hour light-dark cycle (0700-1900) at 68-74° F. and 30-70% humidity. Mice were fed Research Diets D12492 (60% Kcal fat, 20% Kcal carbohydrate and 20% protein) and provided water ad libitum. DIO mice were received and housed in the facility for approximately two weeks prior to the start of test article administration. On Day −4 or −3, mice were randomized into study groups based on body weight and body weights were continued to be recorded daily for the duration of the study. Daily food intake was assessed starting on Study Day −2 by weighing of the food with hopper together to avoid loss of food in transfer.
Compounds were formulated into a 100% DMSO stock (at 9 mg/mL) prior to the start, and further diluted into the target working concentration using the vehicle of 10% DMSO in water. Prior to test article administration, starting on Day −3 a dosing acclimation occurred with all animals receiving a subcutaneous injection of vehicle (10% DMSO) only for 3 days. Starting on Day 1, test compounds or vehicle were administered based on individual body weight, subcutaneously, once a day for 10 days. All mice were sacrificed on Day 11, 24 hours following the final dosing on Day 10. After sacrifice, whole blood was collected and analyzed for hematology and blood chemistry parameters.
Compounds were tested for weight loss vs. vehicle at 0.3 and 1.0 mpk sc (mg per kg animal weight delivered subcutaneously), and the results are shown in Table 2 below.

| Structure (SMILES) | IC50 [1] [µM] | inhibition in vivo at 0.3 mg/kg [2] [%] | inhibition in vivo at 1 mg/kg [2] [%] |
| --- | --- | --- | --- |
| CO[C@@H]1[C@H](OC(=O)N[C@H](c2cc(=O)cc[nH]2)C(C)C)CC[C@]2(CO2)[C@H]1[C@@]1(C)O[C@@H]1CC=C(C)C [Example 20, (3R,4S,5S,6R)-5-methoxy-4-((2R,3R)-2-methyl-3-(3-methylbut-2-enyl)oxiran-2-yl)-1-oxaspiro[2.5]octan-6-yl (S)-2-methyl-1-(4-oxo-1,4-dihydropyridin-2-yl)propylcarbamate] | < 0.05 | 3.4 | 3.3 |
| CO[C@@H]1[C@H](OC(=O)N[C@H](c2cnn(C[C@H]3CCN(C)C3)c2)C(C)C)CC[C@]2(CO2)[C@H]1[C@@]1(C)O[C@@H]1CC=C(C)C [Example 22, (3R,4S,5S,6R)-5-methoxy-4-((2R,3R)-2-methyl-3-(3-methylbut-2-enyl)oxiran-2-yl)-1-oxaspiro[2.5]octan-6-yl (S)-2-methyl-1-(1-(((S)-1-methylpyrrolidin-3-yl)methyl)-1H-pyrazol-4-yl)propylcarbamate formate] | 0.05 to 0.5 | 4.7 | – |
| CO[C@@H]1[C@H](OC(=O)N[C@H](c2cnn(C[C@@H]3CCN(C)C3)c2)C(C)C)CC[C@]2(CO2)[C@H]1[C@@]1(C)O[C@@H]1CC=C(C)C [Example 23, (3R,4S,5S,6R)-5-methoxy-4-((2R,3R)-2-methyl-3-(3-methylbut-2-enyl)oxiran-2-yl)-1-oxaspiro[2.5]octan-6-yl (S)-2-methyl-1-(1-(((R)-1-methylpyrrolidin-3-yl)methyl)-1H-pyrazol-4-yl)propylcarbamate] | 0.05 to 0.5 | 5.1 | – |

Continued, in another order:

| IC50 [1] [µM] | Structure (SMILES) | inhibition in vivo at 0.3 mg/kg [2] [%] | inhibition in vivo at 1 mg/kg [2] [%] |
| --- | --- | --- | --- |
| 0.05 to 0.5 | CO[C@@H]1[C@H](OC(=O)N[C@H](c2cn(C[C@H]3CCN(C)C3)c(C)n2)C(C)C)CC[C@]2(CO2)[C@H]1[C@@]1(C)O[C@@H]1CC=C(C)C [Example 24, (3R,4S,5S,6R)-5-methoxy-4-((2R,3R)-2-methyl-3-(3-methylbut-2-enyl)oxiran-2-yl)-1-oxaspiro[2.5]octan-6-yl (S)-2-methyl-1-(2-methyl-1-(((S)-1-methylpyrrolidin-3-yl)methyl)-1H-imidazol-4-yl)propylcarbamate] | 8.2 | – |
| 0.05 to 0.5 | CO[C@@H]1[C@H](OC(=O)N[C@H](c2ccc(N3CC(F)(F)C3)nc2)C(C)C)CC[C@]2(CO2)[C@H]1[C@@]1(C)O[C@@H]1CC=C(C)C [Example 25, (3R,4S,5S,6R)-5-methoxy-4-((2R,3R)-2-methyl-3-(3-methylbut-2-enyl)oxiran-2-yl)-1-oxaspiro[2.5]octan-6-yl (S)-1-(6-(3,3-difluoroazetidin-1-yl)pyridin-3-yl)-2-methylpropylcarbamate] | 13 | – |
| 0.05 to 0.5 | CO[C@@H]1[C@H](OC(=O)N[C@H](c2ccc(N3CCOCC3)nc2)C(C)C)CC[C@]2(CO2)[C@H]1[C@@]1(C)O[C@@H]1CC=C(C)C [Example 26, (3R,4S,5S,6R)-5-methoxy-4-((2R,3R)-2-methyl-3-(3-methylbut-2-enyl)oxiran-2-yl)-1-oxaspiro[2.5]octan-6-yl (S)-2-methyl-1-(6-morpholinopyridin-3-yl)propylcarbamate] | 7.2 | – |
| < 0.05 | CC[C@@H](Cc1noc(=O)[nH]1)NC(=O)O[C@@H]1CC[C@]2(CO2)[C@@H]([C@@]2(C)O[C@@H]2CC=C(C)C)[C@@H]1OC [Example 29, (3R,4S,5S,6R)-5-methoxy-4-((2R,3R)-2-methyl-3-(3-methylbut-2-enyl)oxiran-2-yl)-1-oxaspiro[2.5]octan-6-yl (S)-1-(5-oxo-4,5-dihydro-1,2,4-oxadiazol-3-yl)butan-2-ylcarbamate] | – | 3.6 |
| < 0.05 | CO[C@@H]1[C@H](OC(=O)N[C@H](Cc2nnc[nH]2)C(C)C)CC[C@]2(CO2)[C@H]1[C@@]1(C)O[C@@H]1CC=C(C)C [Example 31, (3R,4S,5S,6R)-5-methoxy-4-((2R,3R)-2-methyl-3-(3-methylbut-2-enyl)oxiran-2-yl)-1-oxaspiro[2.5]octan-6-yl (R)-3-methyl-1-(4H-1,2,4-triazol-3-yl)butan-2-ylcarbamate] | 2.4 | 2.5 |
